Assay results published in patent US6627772B2, “Preparation of N-[2-(carboxymethoxy) ethyl]-N-(carboxymethyl) glycine” (The Dow Chemical Company, priority 1999, dated 2003).

Key:
[1] = Copper titration with Murexide indicator; type: physicochemical; details: 2 g (0.009 mmol) in 100 mL water, 0.01 molar copper chloride, approximately pH 8, sodium acetate buffer
Method: Copper titration value is used to measure the extent of biodegradation of the chelating agents during the procedure. Titration is performed using ammonium purpurate (indicator for complexometric titration, commercially available from Aldrich Chemical Co., Inc. under the trade designation Murexide) at approximately pH 8, and using sodium acetate as buffer. Titration of […] N-[2-(carboxymethoxy)ethyl]-N-(carboxymethyl)glycine (0.009 mmol) in 100 mL water with 0.01 molar copper chloride gives an endpoint of 0.99 mL, representing a 1:1 chelation of copper. Analysis is performed daily for a period of 28 days.

[2] = Calcium oxalate titration (calcium chelation capacity); type: physicochemical
Method: The applicability of N-[2-(carboxymethoxy)ethyl]-N-(carboxymethyl)glycine for use in hard surface cleaners, is measured by the calcium oxalate titration.
For titration with calcium oxalate, N-[2-(carboxymethoxy)ethyl]-N-(carboxymethyl)glycine (between 1 to 2 millimoles) is placed in a 60 mL beaker. After the addition of 30 mL deionized water and 5 mL of a 3% ammonium oxalate solution, the pH is slowly brought to about 10 by the addition of 20% sodium hydroxide while stirring. The pH is then adjusted to about 11.6 with sodium hydroxide and the solution is titrated with 0.1 M CaCl2 to the first permanent turbidity. The chelation valve is then determined from the mL of titrant used based on the following calculation.
Chelation Value=(mL titrant used×molarity titrant)×100 mg CaCO3 per mmole÷sample wt. in grams×activity of sample (as acid form)
The chelation value is the mg of CaCO3 that can be chelated by one active gram of a chelant, such as N-[2-(carboxymethoxy)ethyl]-N-(carboxymethyl)glycine (IX).
The turbidity produced in the oxalate titration is due to the formation of calcium oxalate. The results for the titration of N-[2-(carboxymethoxy)ethyl]-N-(carboxymethyl)glycine in the presence of oxalate is compared with iminodiacetic acid (IDA) and given in Table II below.

**Q.** What does the source list for O=C(O)COCCN(CC(=O)O)CC(=O)O [(IX), N-[2-(carboxymethoxy)ethyl]-N-(carboxymethyl)glycine]?
**A.** Copper titration endpoint [1]: 0.99 mL; Chelation value compared with IDA (in words) [2]: far superior to IDA; Chelation Value ([2]; pH about 11.6, 0.1 M CaCl2 to first permanent turbidity): 423 mg of CaCO3 per active gram of
